The values below are quoted from earlier work in patent publication US20210299134A1, “TREATMENT OF B CELL MALIGNANCIES” (MEI Pharma, Inc., priority 2018, published 2021).

For one data set, the system named is B-cell malignancies. Particulars: a day per week dosing after once daily dosing for two 28-day cycles; preliminary data; cited from earlier work.
The conditions of data set [1]: cited from earlier work.
The next data set concerns TREGs. Particulars: after administration of a single dose; cited from earlier work.

In the case of `CCOc1c([C@H](C)n2nc(C)c3c(N)ncnc32)cc(Cl)c(F)c1[C@@H]1CNC(=O)C1` [parsaclisib], in the data set with B-cell malignancies, the “incidence of severe irAEs on IS” value is on record as “decrease in the incidence of severe irAEs” and the “tumor progression on IS” value was “high rate of tumor progression”. Moreover, the “plasma levels versus tissue levels” value in data set [1] (FIG. 6B) is “plasma approximates tissue levels”. Moreover, the “plasma levels >IC90, share of time” value in data set [1] (once weekly dosing) is 32%.

denileukin diftitox: the “time to TREGs repopulation” value in the data set on TREGs is listed as “approximately 14 days”.
